Consider 18 compounds from US10428055B2, “Substituted piperidines having GPR119 agonistic activity” (DONG-A ST CO., LTD., priority 2014, dated 2019).

One experiment concerns the target T1, Human GPR119 (Homo sapiens, UniProt Q8TDV5).
T1 construct: host or cells: HEK293 (ATCC)
T1 sequence (Q8TDV5 1-335): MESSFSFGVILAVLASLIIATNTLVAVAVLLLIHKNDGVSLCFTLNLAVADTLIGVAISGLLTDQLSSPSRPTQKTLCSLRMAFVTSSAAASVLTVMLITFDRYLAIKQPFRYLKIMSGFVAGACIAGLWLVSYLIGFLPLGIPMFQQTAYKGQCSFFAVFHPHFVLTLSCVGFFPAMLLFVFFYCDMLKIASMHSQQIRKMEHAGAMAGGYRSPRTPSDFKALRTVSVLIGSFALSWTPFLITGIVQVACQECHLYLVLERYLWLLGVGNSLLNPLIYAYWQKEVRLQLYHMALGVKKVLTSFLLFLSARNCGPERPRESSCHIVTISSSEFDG
The experiment is described as follows: Human GPR119 activation assay (cAMP, HTRF). Type of experiment: cell-based. As to conditions: HEK293 cells transiently expressing human GPR119, relative to maximum effect of OEA; for Emax at 0.001 µM / Emax at 0.01 µM: 1 h, read-out: hGPR119 activation ability (cAMP assay) Relative Response % vs OEA. An excerpt: <Experimental Example 1>Human GPR119 activation assay
Human GPR119 was temporarily expressed on cells, thereby quantifying the amount of cyclic adenosine 3′,5′-monophosphate (cAMP) increased upon activating GPR119 by the compound of the present invention, using the product from Cysbio, by a method of HTRF (homogeneous time resolved fluorescence), and such quantification was used to refer to efficacy on GPR119 activation.
Human GPR119 expression vector (Origene) was overexpressed in […] renal epithelial cells (HEK293) (ATCC), and the cells were stabilized for 48 hours. With a solution of 11.1 mM glucose, 0.1% bovine serum albumin, and 0.5 mM IBMX (3-isobutyl-1-methylxanthine) which is a phosphodiesterase inhibitor being added to a KRBH (Krebs-Ringer Bicarbonate HEPES; Hou ZQ. et al., Mol Cell Endocrinol, 2008(291):71-78) buffer, the cells were pre-treated for 10 minutes. Thereafter, the cells were treated with the same solution containing a drug for 60 minutes, then the supernatant was removed, and the increase in cAMP in cells was quantified using a Cysbio cAMP HiRange kit.
As to the maximum efficacy of compounds tested, multiple concentration assessment for the compounds of the present invention was carried out, thereby assessing the relative activation level (%) to the maximum effect of oleoylethanolamide (OEA), an endogenous ligand of GPR119.

A further experiment deals with C57BL/6 mouse. The experiment is described as follows: Assessment of glucose tolerance improvement effect in mouse. Type of experiment: in vivo. As to conditions: 2 h; 10 mg/kg oral, 30 min before oral glucose 2 g/kg; male C57BL/6 mouse; blood glucose AUC. On the procedure: <Experimental Example 2>Assessment of glucose tolerance improvement effect in mouse
As one of anti-diabetic effect indicators, the glucose tolerance improvement effect of the above compounds was evaluated in 7-week male laboratory mouse (C57BL/6 mouse), as the effect of improving postprandial glycemic control ability.
The laboratory mouse was fasted from the day before the experiment for 16-17 hours. The compound of the present invention was orally administered 30 minutes before administrating glucose, and after 30 minutes, a glucose solution (2 g/kg/10 ml) was orally administered. A drug was prepared by suspending in a 10% Gelucire solution. At the times immediately before drug administration, immediately before glucose solution administration, 15 minutes, 30 minutes, 60 minutes, 90 minutes, and 120 minutes after glucose administration, the whole blood glucose levels was measured from tail vein using a blood glucose meter (AccuChek Active, Roche Diagnostics), and the area under the curve of a temporal blood glucose curve was calculated. From the calculated area under the blood glucose curve, the area under the blood glucose curve of a negative control group to which no glucose solution was administered was subtracted, and inhibitory activity against blood glucose increase of a control group to which only the 10% Gelucire solution and glucose solution were administered was calculated as a percentage, thereby evaluating the glucose tolerance improvement efficacy of a drug.
The results are shown in Table 3, in which the glucose tolerance improvement effect represented at a dose of 10 mg/kg was represented by classifying into three groups, under 30%, more than 30% under 40%, and more than 40%. A significant glucose tolerance improvement effect was identified in 22 compounds on which the experiment was carried out, and among those compounds, 16 compounds represented an excellent in vivo activity of 30% inhibitory dose of 10 mg/kg or less. In the following Table 3, A represents an inhibitory activity more than 40%, B represents an inhibitory activity more than 30% under 40% and C represents an inhibitory activity under 30%.

One may read the inhibition in vivo as the drop in the measured response relative to a control, in per cent. The low end stands for a weak effect, the high end for a strong effect. On to `CCc1cnc(N2CCC(CCCOc3cc(F)c(C4=NC[C@H](C)O4)c(F)c3)CC2)nc1` [Example 4, (S)-2-(4-(3-(1-(5-ethylpyrimidin-2-yl)piperidin-4-yl)propoxy)-2,6-difluorophenyl)-5-methyl-4,5-dihydrooxazole], for which the Emax at 0.001 µM on Human GPR119 (1 nM) came to 79.6%. Further, at Human GPR119 (10 nM), the Emax at 0.01 µM came to 167%. This compound also yielded an inhibition in vivo at 10 mg/kg with C57BL/6 mouse of less than 30%.

For `CCc1cnc(N2CCC(CCCOc3cc(F)c(C4=NC[C@@H](C)O4)c(F)c3)CC2)nc1` [Example 5, (R)-2-(4-(3-(1-(5-ethylpyrimidin-2-yl)piperidin-4-yl)propoxy)-2,6-difluorophenyl)-5-methyl-4,5-dihydrooxazole], the Emax at 0.001 µM at Human GPR119 (1 nM) is 44.6%. In addition, the Emax at 0.01 µM on Human GPR119 (10 nM) worked out at 150%. For the same compound, in the experiment on C57BL/6 mouse, the inhibition in vivo at 10 mg/kg is more than 40%.

In the case of `CCc1cnc(N2CCC(CCCOc3cc(F)c(C4=NC[C@H](CO)O4)c(F)c3)CC2)nc1` [Example 7, (R)-(2-(4-(3-(1-(5-ethylpyrimidin-2-yl)piperidin-4-yl)propoxy)-2,6-difluorophenyl)-4,5-dihydrooxazol-5-yl)methanol], the Emax at 0.001 µM at Human GPR119 (1 nM) amounted to 51.3%. Moreover, the Emax at 0.01 µM on Human GPR119 (10 nM) stood at 170%. The compound further showed an inhibition in vivo at 10 mg/kg in the experiment on C57BL/6 mouse of less than 30%.

Take `CC(C)c1noc(N2CCC(CCCOc3cc(F)c(C4=NC[C@H](C)O4)c(F)c3)CC2)n1` [Example 11, (S)-5-(4-(3-(3,5-difluoro-4-(5-methyl-4,5-dihydrooxazol-2-yl)phenoxy)propyl)piperidin-1-yl)-3-isopropyl-1,2,4-oxadiazole]: the Emax at 0.001 µM at Human GPR119 (1 nM) is 184%. In addition, the Emax at 0.01 µM at Human GPR119 (10 nM) was 266%. The inhibition in vivo at 10 mg/kg with C57BL/6 mouse is less than 30%.

For `CC(C)c1noc(N2CCC(CCCOc3cc(F)c(C4=NCC(C)(C)O4)c(F)c3)CC2)n1` [Example 12, 5-(4-(3-(4-(5,5-dimethyl-4,5-dihydrooxazol-2-yl)-3,5-difluorophenoxy)propyl)piperidin-1-yl)-3-isopropyl-1,2,4-oxadiazole], the Emax at 0.001 µM on Human GPR119 (1 nM) is 116%. The Emax at 0.01 µM on Human GPR119 (10 nM) was found to be 232%. Moreover, in the experiment with C57BL/6 mouse, the inhibition in vivo at 10 mg/kg is more than 40%.

`CCc1cnc(N2CCC(CCCOc3cc(F)c(-c4noc(C)n4)c(F)c3)CC2)nc1` [Example 13, 3-(4-(3-(1-(5-ethylpyrimidin-2-yl)piperidin-4-yl)propoxy)-2,6-difluorophenyl)-5-methyl-1,2,4-oxadiazole]: the Emax at 0.001 µM at Human GPR119 (1 nM) was 49.4%. Also, the Emax at 0.01 µM on Human GPR119 (10 nM) is 126%. Moreover, in the experiment with C57BL/6 mouse, the inhibition in vivo at 10 mg/kg was in the range of 30 to 40%.

`CCc1cnc(N2CCC(CCCOc3cc(F)c(-c4noc(C(C)C)n4)c(F)c3)CC2)nc1` [Example 15, 3-(4-(3-(1-(5-ethylpyrimidin-2-yl)piperidin-4-yl)propoxy)-2,6-difluorophenyl)-5-isopropyl-1,2,4-oxadiazole]: the entries for the “hGPR119 activation ability (cAMP assay) Relative Response % vs OEA” value on Human GPR119 (1 nM) and at Human GPR119 (10 nM) were 87.7% and 183.8%, respectively. Moreover, in the experiment with C57BL/6 mouse, the inhibition in vivo at 10 mg/kg is more than 40%.

On to `CCCc1noc(N2CCC(CCCOc3cc(F)c(-c4nnc(C(C)C)o4)c(F)c3)CC2)n1` [Example 54, 5-(4-(3-(3,5-difluoro-4-(5-isopropyl-1,3,4-oxadiazol-2-yl)phenoxy)propyl)piperidin-1-yl)-3-propyl-1,2,4-oxadiazole], for which the Emax at 0.001 µM on Human GPR119 (1 nM) came out at 75.1%. Besides, the Emax at 0.01 µM at Human GPR119 (10 nM) came to 241%.

Turning to `CCc1nnc(-c2c(F)cc(OCCCC3CCN(c4nc(C(C)C)no4)CC3)cc2F)o1` [Example 56, 5-(4-(3-(4-(5-ethyl-1,3,4-oxadiazol-2-yl)-3,5-difluorophenoxy)propyl)piperidin-1-yl)-3-isopropyl-1,2,4-oxadiazole], the Emax at 0.001 µM at Human GPR119 (1 nM) worked out at 265%. For the same compound, the Emax at 0.01 µM on Human GPR119 (10 nM) came out at 373%.

Consider `Cc1nnc(-c2c(F)cc(OCCCC3CCN(c4nc(CC(F)(F)F)no4)CC3)cc2F)o1` [Example 58, 5-(4-(3-(3,5-difluoro-4-(5-methyl-1,3,4-oxadiazol-2-yl)phenoxy)propyl)piperidin-1-yl)-3-(2,2,2-trifluoroethyl)-1,2,4-oxadiazole], for which the Emax at 0.001 µM at Human GPR119 (1 nM) came to 699%.

Take `CC(C)c1nc(N2CCC(CCCOc3cc(F)c(-c4nnc(C(C)C)o4)c(F)c3)CC2)no1` [Example 59, 3-(4-(3-(3,5-difluoro-4-(5-isopropyl-1,3,4-oxadiazol-2-yl)phenoxy)propyl)piperidin-1-yl)-5-isopropyl-1,2,4-oxadiazole]: at Human GPR119 (1 nM), the Emax at 0.001 µM was determined as 140%. Besides, the Emax at 0.01 µM on Human GPR119 (10 nM) was found to be 329%.

On to `CCc1cnc(N2CCC(CCCOc3cc(F)c(-c4nnc(C(C)C)s4)c(F)c3)CC2)nc1` [Example 60, 2-(4-(3-(1-(5-ethylpyrimidin-2-yl)piperidin-4-yl)propoxy)-2,6-difluorophenyl)-5-isopropyl-1,3,4-thiadiazole], for which the Emax at 0.001 µM at Human GPR119 (1 nM) turned out to be 285%. For the same compound, the Emax at 0.01 µM at Human GPR119 (10 nM) was found to be 516%.

For the compound `CCCc1cnc(N2CCC(CCCOc3cc(F)c(-c4nnc(C(C)C)s4)c(F)c3)CC2)nc1` [Example 61, 2-(2,6-difluoro-4-(3-(1-(5-propylpyrimidin-2-yl)piperidin-4-yl)propoxy)phenyl)-5-isopropyl-1,3,4-thiadiazole], on Human GPR119 (1 nM), the Emax at 0.001 µM worked out at 98.1%. In addition, the Emax at 0.01 µM on Human GPR119 (10 nM) turned out to be 186%.

Turning to `CCCCCc1cnc(N2CCC(CCCOc3cc(F)c(-c4nnc(C(C)C)s4)c(F)c3)CC2)nc1` [Example 62, 2-(2,6-difluoro-4-(3-(1-(5-pentylpyrimidin-2-yl)piperidin-4-yl)propoxy)phenyl)-5-isopropyl-1,3,4-thiadiazole], the Emax at 0.001 µM on Human GPR119 (1 nM) came out at 88.8%. The Emax at 0.01 µM on Human GPR119 (10 nM) is 169%.

As to `CC(C)c1nnc(-c2c(F)cc(OCCCC3CCN(c4ncc(F)cn4)CC3)cc2F)s1` [Example 63, 2-(2,6-difluoro-4-(3-(1-(5-fluoropyrimidin-2-yl)piperidin-4-yl)propoxy)phenyl)-5-isopropyl-1,3,4-thiadiazole], the Emax at 0.001 µM on Human GPR119 (1 nM) came out at 114%. The Emax at 0.01 µM on Human GPR119 (10 nM) is 228%.

Take `CC(C)c1nnc(-c2c(F)cc(OCCCC3CCN(c4ncc(C(F)(F)F)cn4)CC3)cc2F)s1` [Example 64, 2-(2,6-difluoro-4-(3-(1-(5-(trifluoromethyl)pyrimidin-2-yl)piperidin-4-yl)propoxy)phenyl)-5-isopropyl-1,3,4-thiadiazole]: the Emax at 0.001 µM on Human GPR119 (1 nM) came out at 77%. In addition, on Human GPR119 (10 nM), the Emax at 0.01 µM came to 179%.

As for `CC(C)c1nnc(-c2c(F)cc(OCCCC3CCN(c4ccc(C(F)(F)F)cn4)CC3)cc2F)s1` [Example 65, 2-(2,6-difluoro-4-(3-(1-(5-(trifluoromethyl)pyridin-2-yl)piperidin-4-yl)propoxy)phenyl)-5-isopropyl-1,3,4-thiadiazole], at Human GPR119 (1 nM), the Emax at 0.001 µM was determined as 78.1%. Moreover, the Emax at 0.01 µM at Human GPR119 (10 nM) was determined as 189%.

Regarding `CCc1cnc(N2CCC(CCCOc3cc(F)c(-c4nc(CC)cs4)c(F)c3)CC2)nc1` [Example 66, 4-ethyl-2-(4-(3-(1-(5-ethylpyrimidin-2-yl)piperidin-4-yl)propoxy)-2,6-difluorophenyl) thiazole], on Human GPR119 (1 nM), the Emax at 0.001 µM turned out to be 95.6%. The Emax at 0.01 µM on Human GPR119 (10 nM) is 120%.
